# Assay results published in US6645690B2, “Photographic member with flexibilizer material” (Eastman Kodak Company, priority 2001, dated 2003).
# Where a name gives a salt, the structure may show the parent alone.
# Experiment: physchem
# Conditions: not given
row,Compound,logP
1,"OCCOCCO [FA10, 2,2′-oxydiethanol, reference compound]",-1.47
2,"OCCO [FA8, Ethylene glycol, reference compound]",-1.2
3,"COC(=O)c1ccc(O)cc1 [FA9, Methyl-4-hydroxybenzoate sodium salt, reference compound]",-1.34
4,"CC(O)CCO (stereo not shown) [FA1, 1,3-butanediol]",-0.29
5,"OCCOc1ccccc1 [FA6, 2-phenoxyethanol]",1.1

# Same assay, conditions: octanol/water
row,Compound,logP
1,"CCCCC(O)CO (stereo not shown) [FA4, 1,2-hexanediol]",0.69
2,"OCCCCCO [FA3, 1,5-pentanediol]",0.27
3,"CCCCC(CC)CO (stereo not shown) [FA7, 2-ethyl-1-hexanol]",2.73
4,"OCCCCCCO [FA5, 1,6-hexanediol]",0.76

# Experiment: Log P (octanol-water partition coefficient) of flexibilizer agents
# Conditions: not given
row,Compound,Log P
1,"2,3-dimethylpropanediol [FA2]",0.13
